The record followed here is patent publication US8802673B2, “Heterocyclic amine derivatives” (Hoffmann-La Roche Inc, priority 2011, dated 2014).

The target in one assay is mouse TAAR1 (Mus musculus (Mouse), UniProt Q923Y8). The assay is described as follows: Radioligand binding assay on mouse TAAR1. The note with it: mouse TAAR1 (first value of the cell), HEK-293 membranes; read-out: Ki (μM) mouse/rat. Here is the method: (§1) Construction of TAAR Expression Plasmids and Stably Transfected Cell Lines
(§2) For the construction of expression plasmids the coding sequences of human, rat and mouse TAAR 1 were amplified from genomic DNA essentially as described by Lindemann et al.. The Expand High Fidelity PCR System (Roche Diagnostics) was used with 1.5 mM Mg^2+ and purified PCR products were cloned into pCR2.1-TOPO cloning vector (Invitrogen) following the instructions of the manufacturer. PCR products were subcloned into the pIRESneo2 vector (BD Clontech, Palo Alto, Calif.), and expression vectors were sequence verified before introduction in cell lines.
(§3) HEK293 cells (ATCC #CRL-1573) were cultured essentially as described by Lindemann et al. (2005). For the generation of stably transfected cell lines HEK293 cells were transfected with the pIRESneo2 expression plasmids containing the TAAR coding sequences (described above) with Lipofectamine 2000 (Invitrogen) according to the instructions of the manufacturer, and 24 hrs post transfection the culture medium was supplemented with 1 mg/ml G418 (Sigma, Buchs, Switzerland). After a culture period of about 10 d clones were isolated, expanded and tested for responsiveness to trace amines (all compounds purchased from Sigma) with the cAMP Biotrak Enzyme immunoassay (EIA) System (Amersham) following the non-acetylation EIA procedure provided by the manufacturer.
Radioligand Binding Assay on Mouse TAAR1
Membrane Preparation and Radioligand Binding.
(§4) HEK-293 cells stably expressing mouse TAAR1 were maintained at 37° C. and 5% CO2 in DMEM high glucose medium, containing fetal calf serum (10%, heat inactivated for 30 min at 56° C.), penicillin/streptomycin (1%), and 375 μg/ml geneticin (Gibco). Cells were released from culture flasks using trypsin/EDTA, harvested, washed twice with ice-cold PBS (without Ca^2+ and Mg^2+), pelleted at 1,000 rpm for 5 min at 4° C., frozen and stored at −80° C. Frozen pellets were suspended in 20 ml HEPES-NaOH (20 mM, pH 7.4) containing 10 mM EDTA and homogenized with a Polytron (PT 6000, Kinematica) at 14,000 rpm for 20 s. The homogenate was centrifuged at 48,000×g for 30 min at 4° C. Subsequently, the supernatant was removed and discarded, and the pellet resuspended in 20 ml HEPES-NaOH (20 mM, pH 7.4) containing 0.1 mM EDTA using the Polytron (20 s at 14,000 rpm). This procedure was repeated and the final pellet resuspended in HEPES-NaOH containing 0.1 mM EDTA and homogenized using the Polytron. Typically, aliquots of 2 ml membrane portions were stored at −80° C. With each new membrane batch the dissociation constant (Kd) was determined via a saturation curve. […] All compounds were tested at a broad range of concentrations (10 pM to 10 μM) in duplicates. […] The 96 deep well plates were incubated for 1 hr at 4° C. Incubations were terminated by rapid filtration through Unifilter-96 plates (Packard Instrument Company) and glass filters GF/C (Perkin Elmer) presoaked for 1 hr in polyethylenimine (0.3%) and washed 3 times with 1 ml of cold binding buffer. After addition of 45 μl of Microscint 40 (PerkinElmer) the Unifilter-96 plate was sealed and after 1 hr the ratioactivity counted using a TopCount Microplate Scintillation Counter (Packard Instrument Company).

The target of another assay is rat TAAR1 (Rattus norvegicus (Rat), UniProt Q923Y9). The assay is described as follows: Radioligand binding assay on rat TAAR1. The note with it: rat TAAR1 (second value of the cell), HEK-293 membranes; read-out: Ki (μM) mouse/rat. How it is done:
as §1, §2, §3
Radioligand Binding Assay on Rat TAAR1
Membrane Preparation and Radioligand Binding
as §4, with “rat” for “mouse”

Molecules are shown by their SMILES. Counter-ions that a name gives are not always drawn.

rat TAAR1, sequence (Q923Y9 whole entry): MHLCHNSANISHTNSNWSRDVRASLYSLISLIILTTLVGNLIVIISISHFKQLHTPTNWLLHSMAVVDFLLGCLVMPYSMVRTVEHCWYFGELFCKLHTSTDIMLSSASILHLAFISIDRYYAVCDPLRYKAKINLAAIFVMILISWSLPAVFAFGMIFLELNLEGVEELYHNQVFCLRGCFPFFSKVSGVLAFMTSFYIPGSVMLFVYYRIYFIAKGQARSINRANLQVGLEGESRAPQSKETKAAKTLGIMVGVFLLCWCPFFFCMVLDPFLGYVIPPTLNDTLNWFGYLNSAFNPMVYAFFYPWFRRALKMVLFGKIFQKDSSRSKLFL
mouse TAAR1, sequence (Q923Y8 whole entry): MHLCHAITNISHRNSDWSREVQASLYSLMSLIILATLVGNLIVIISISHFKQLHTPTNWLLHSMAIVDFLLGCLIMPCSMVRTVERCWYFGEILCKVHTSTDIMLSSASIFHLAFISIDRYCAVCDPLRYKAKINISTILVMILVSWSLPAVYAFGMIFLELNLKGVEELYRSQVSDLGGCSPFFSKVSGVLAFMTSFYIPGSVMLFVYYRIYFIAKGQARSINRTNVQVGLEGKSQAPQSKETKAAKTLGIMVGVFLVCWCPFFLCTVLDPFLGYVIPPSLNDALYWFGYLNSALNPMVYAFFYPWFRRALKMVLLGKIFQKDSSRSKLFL

On to `CC(Nc1ccc([C@H]2CNCCO2)cc1)c1ccc(Cl)cc1` (mixture of isomers) [Example 70, [(RS)-1-(4-Chloro-phenyl)-ethyl]-((S)-4-morpholin-2-yl-phenyl)-amine], for which the Ki on mouse TAAR1 stood at 0.523 µM; at rat TAAR1, 4.07 µM.

As for `Cc1cc(C)nc(Nc2ccc(C3CCNC3)cc2)n1` (racemic) [Example 1, (RS)-(4,6-Dimethyl-pyrimidin-2-yl)-(4-pyrrolidin-3-yl-phenyl)-amine; hydrochloride], the Ki was 0.074 µM on mouse TAAR1 and 1.51 µM on rat TAAR1.

`FC(F)(F)C(Nc1ccc(CCC2CCCNC2)cc1)c1ccc(Cl)cc1` (racemic) [Example 4, (RS)-[1-(4-Chloro-phenyl)-2,2,2-trifluoro-ethyl]-[(RS)-4-(2-piperidin-3-yl-ethyl)-phenyl]-amine]: the results for the Ki at mouse TAAR1 and at rat TAAR1 were 0.122 µM and 0.0785 µM, respectively.

Consider `Clc1ccc(Nc2ccc(C3CNCCO3)cc2)nc1` (racemic) [Example 5, (RS)-(5-Chloro-pyridin-2-yl)-(4-morpholin-2-yl-phenyl)-amine], for which the Ki at mouse TAAR1 came to 0.0011 µM; at rat TAAR1 it was 0.029 µM.

Regarding `Clc1cnc(Nc2ccc(C3CNCCO3)cc2)nc1` (racemic) [Example 6, (RS)-(5-Chloro-pyrimidin-2-yl)-(4-morpholin-2-yl-phenyl)-amine], the Ki was found to be 0.0133 µM on mouse TAAR1 and 0.232 µM at rat TAAR1.

As to `Clc1ccc(Nc2ccc(C3CNCCO3)cc2)cc1` (racemic) [Example 8, (RS)-(4-Chloro-phenyl)-(4-morpholin-2-yl-phenyl)-amine], the values for the Ki on mouse TAAR1 and at rat TAAR1 were 0.0005 µM and 0.0325 µM, respectively.

Turning to `Clc1ccc(CNc2ccc(C3CNCCO3)cc2)cc1` (racemic) [Example 9, (RS)-(4-Chloro-benzyl)-(4-morpholin-2-yl-phenyl)-amine], the Ki at mouse TAAR1 is 0.0181 µM; on rat TAAR1, 0.0893 µM.

As for `Cc1cc(C2CNCCO2)ccc1Nc1ccc(Br)cn1` (racemic) [Example 76, (RS)-5-Bromo-N-(2-methyl-4-(morpholin-2-yl)phenyl)pyridin-2-amine], the figures for the Ki on mouse TAAR1 and at rat TAAR1 were 0.0024 µM and 0.045 µM, respectively.

Take `Cc1cc(C2CNCCO2)ccc1Nc1ccc(Cl)cc1` (racemic) [Example 79, (RS)-(4-Chloro-phenyl)-(2-methyl-4-morpholin-2-yl-phenyl)-amine]: the values for the Ki on mouse TAAR1 and on rat TAAR1 were 0.0047 µM and 0.0716 µM, respectively.

With `Cc1cc(C2CNCCO2)ccc1Nc1ccc(Cl)cn1` (racemic) [Example 80, (RS)-(5-Chloro-pyridin-2-yl)-(2-methyl-4-morpholin-2-yl-phenyl)-amine], the Ki was 0.0026 µM on mouse TAAR1 and 0.0626 µM on rat TAAR1.

For the compound `Cc1cc(C2CNCCO2)ccc1Nc1ncc(Cl)cn1` (racemic) [Example 81, (RS)-(5-Chloro-pyrimidin-2-yl)-(2-methyl-4-morpholin-2-yl-phenyl)-amine], the Ki on mouse TAAR1 was 0.0162 µM; at rat TAAR1, 0.203 µM.

In the case of `Cc1cc(Nc2ccc(C3CNCCO3)cc2C)ncc1Cl` (racemic) [Example 84, (RS)-5-Chloro-4-methyl-N-(2-methyl-4-(morpholin-2-yl)phenyl)pyridin-2-amine], the Ki amounted to 0.0015 µM at mouse TAAR1 and 0.057 µM on rat TAAR1.

On to `Cc1cc(Nc2ccc(C3CNCCO3)cc2C)ncc1Br` (racemic) [Example 85, (RS)-5-Bromo-4-methyl-N-(2-methyl-4-(morpholin-2-yl)phenyl)pyridin-2-amine], for which the Ki on mouse TAAR1 came out at 0.0014 µM; at rat TAAR1, 0.0194 µM.

Regarding `CCc1cnc(Nc2ccc(C3CNCCO3)cc2C)nc1` (racemic) [Example 88, (RS)-5-Ethyl-N-(2-methyl-4-(morpholin-2-yl)phenyl)pyrimidin-2-amine], the values for the Ki on mouse TAAR1 and on rat TAAR1 were 0.008 µM and 0.0874 µM, respectively.

Take `Cc1cc(C2CNCCO2)ccc1Nc1ncc(Br)cn1` (racemic) [Example 89, (RS)-5-Bromo-N-(2-methyl-4-(morpholin-2-yl)phenyl)pyrimidin-2-amine]: the figures for the Ki on mouse TAAR1 and on rat TAAR1 were 0.0139 µM and 0.177 µM, respectively.

In the case of `Fc1cc(C2CNCCO2)ccc1Nc1ccc(Cl)cn1` (racemic) [Example 99, (RS)-5-Chloro-N-(2-fluoro-4-(morpholin-2-yl)phenyl)pyridin-2-amine], at rat TAAR1, the Ki came to 0.0185 µM.

For `c1cc(Nc2ccc(C3CNCCO3)cc2)[nH]n1` (racemic) [Example 155, (RS)-(4-Morpholin-2-yl-phenyl)-(1H-pyrazol-3-yl)-amine], the Ki at mouse TAAR1 is 0.6 µM.

With `Brc1cnc(Nc2ccc([C@@H]3CNCCO3)cc2)nc1` [Example 94, (5-Bromo-pyrimidin-2-yl)-((R)-4-morpholin-2-yl-phenyl)-amine], the Ki at rat TAAR1 was 0.0489 µM.

On to `Brc1ccc(Nc2ccc([C@@H]3CNCCO3)cn2)nc1` [Example 108, (R)-5-Bromo-N-(5-(morpholin-2-yl)pyridin-2-yl)pyridin-2-amine], for which the Ki at rat TAAR1 came out at 0.216 µM.

In the case of `Brc1ccc(Nc2ccc([C@H]3CNCCO3)cn2)nc1` [Example 109, (S)-5-Bromo-N-(5-(morpholin-2-yl)pyridin-2-yl)pyridin-2-amine], the Ki on rat TAAR1 amounted to 0.362 µM.

Consider `Cc1cc([C@@H]2CNCCO2)ccc1Nc1ncc(C2CC2)cn1` [Example 110, (5-Cyclopropyl-pyrimidin-2-yl)-((R)-2-methyl-4-morpholin-2-yl-phenyl)-amine], for which, at rat TAAR1, the Ki worked out at 0.0306 µM.

In the case of `Cc1cc([C@H]2CNCCO2)ccc1Nc1ncc(C2CC2)cn1` [Example 111, (5-Cyclopropyl-pyrimidin-2-yl)-((S)-2-methyl-4-morpholin-2-yl-phenyl)-amine], the Ki at rat TAAR1 stood at 0.0322 µM.

As for `Fc1cc([C@@H]2CNCCO2)ccc1Nc1ncc(C2CC2)cn1` [Example 118, (5-Cyclopropyl-pyrimidin-2-yl)-((R)-2-fluoro-4-morpholin-2-yl-phenyl)-amine], the Ki at rat TAAR1 worked out at 0.003 µM.

As to `Fc1cc([C@H]2CNCCO2)ccc1Nc1ncc(C2CC2)cn1` [Example 119, (5-Cyclopropyl-pyrimidin-2-yl)-((S)-2-fluoro-4-morpholin-2-yl-phenyl)-amine], the Ki on rat TAAR1 is 0.0051 µM.

As for `Fc1cc([C@@H]2CNCCO2)ccc1Nc1ncc(Br)cn1` [Example 126, (5-Bromo-pyrimidin-2-yl)-((R)-2-fluoro-4-morpholin-2-yl-phenyl)-amine], the Ki on rat TAAR1 amounted to 0.0096 µM.

For the compound `Fc1cc([C@H]2CNCCO2)ccc1Nc1ncc(Br)cn1` [Example 127, (5-Bromo-pyrimidin-2-yl)-((S)-2-fluoro-4-morpholin-2-yl-phenyl)-amine], the Ki on rat TAAR1 came to 0.0165 µM.
